Structures can show the parent of a compound that is named as a salt. Where two headings read alike, the source gives them in different places.
Legend:
[1] = target: BIR3 domain of human XIAP (residues 252-350) (Homo sapiens (Human), UniProt P98170); assay: XIAP in vitro competitive displacement binding assay (fluorescence polarization); details: read-out: IC50 or PI Xiap: IC50
[2] = target: BIR3 domain of human cIAP-1 (residues 267-363) (Homo sapiens (Human), UniProt Q13490); assay: cIAP-1 in vitro competitive displacement binding assay (fluorescence polarization; Probe A AVPIK(5&6FAM)-amide or Probe B AbuRPFK(5&6FAM)-amide); details: for inhibition at 0.01 µM: 3 h, read-out: IC50 or PI cIAP1: PI
[3] = system: EVSA-T (human breast carcinoma); assay: Anti-proliferative activity, Alamar Blue assay, EVSA-T; assay type: cell-based; details: Homo sapiens, EVSA-T
[4] = Probe B AbuRPFK(5&6FAM)-amide, read-out: IC50 or PI cIAP1: IC50
[5] = 72 hours, Alamar Blue, read-out: EVSA-T prolif (EC50)
[6] = read-out: IC50 or PI cIAP1: IC50
[7] = 72 h, read-out: EVSA-T prolif (EC50)

## CC[C@H]1CN[C@H](C)CN1CC(=O)N1CC(C)(C)c2cnc(Cc3ccccc3)cc21 [Example 91, 1-{6-Benzyl-3,3-dimethyl-1H,2H,3H-pyrrolo[3,2-c]pyridin-1-yl}-2-[(2S,5R)-2-ethyl-5-methylpiperazin-1-yl]ethan-1-one, hydrochloride salt]
[1]
  IC50: 290 nM
[2]; [4]
  IC50: 19 nM
[3]; [5]
  EC50: 200 nM

## COC[C@H]1CN[C@H](C)CN1CC(=O)N1CC(C)(C)c2cnc(C3CCCC3)cc21 [Example 92, 1-{6-Cyclopentyl-3,3-dimethyl-1H,2H,3H-pyrrolo[3,2-c]pyridin-1-yl}-2-[(2R,5R)-2-(methoxymethyl)-5-methylpiperazin-1-yl]ethan-1-one, hydrochloride salt]
[1]
  IC50: 1200 nM
[2]; [4]
  IC50: 270 nM
[3]; [5]
  EC50: 4800 nM

## C[C@@H]1CN(CC(=O)N2CC(C)(C)c3cnc(Cc4ccccc4)cc32)[C@@H](C(=O)N2CCC2)CN1 [Example 100, 2-[(2R,5R)-2-[(Azetidin-1-yl)carbonyl]-5-methyl-piperazin-1-yl]-1-{6-benzyl-3,3-dimethyl-1H,2H,3H-pyrrolo[3,2-c]pyridin-1-yl}ethan-1-one, hydrochloride salt]
[1]
  IC50: 120 nM
[2]; [4]
  IC50: 14 nM
[3]; [5]
  EC50: 450 nM

## C[C@@H]1CN(CC(=O)N2CC(C)(C)c3cnc(Cc4ccccc4)cc32)[C@@H](C(=O)N2CCOCC2)CN1 [Example 101, 1-{6-Benzyl-3,3-dimethyl-1H,2H,3H-pyrrolo[3,2-c]pyridin-1-yl}-2-[(2R,5R)-5-methyl-2-[(morpholin-4-yl)carbonyl]piperazin-1-yl]ethan-1-one, hydrochloride salt]
[1]
  IC50: 72 nM
[2]; Probe B, @ 0.01 μM
  inhibition at 0.01 µM: 62%
[3]; [5]
  EC50: 140 nM

## COC[C@H]1CN[C@H](C)CN1CC(=O)N1CC(C)(C)c2cnc(C#N)cc21 [Example 103, 1-{2-[(2R,5R)-2-(Methoxymethyl)-5-methylpiperazin-1-yl]acetyl}-3,3-dimethyl-1H,2H,3H-pyrrolo[3,2-c]pyridine-6-carbonitrile]
[1]
  IC50: 420 nM
[2]
  IC50: < 1000 nM
[2]; [6]
  IC50: 870 nM
[3]; at 10 μM, read-out: EVSA-T prolif: % inhibition
  inhibition at 10 µM: 12%

## COC[C@H]1CN[C@H](C)CN1CC(=O)N1CC(C)(C)c2cnc(Cc3ccc(F)cc3F)cc21 [Example 105, 1-{6-[(2,4-Difluorophenyl)methyl]-3,3-dimethyl-1H,2H,3H-pyrrolo[3,2-c]pyridin-1-yl}-2-[(2R,5R)-2-(methoxymethyl)-5-methylpiperazin-1-yl]ethan-1-one, hydrochloride salt]
[1]
  IC50: 190 nM
[2]; Probe B, @ 0.01 μM
  inhibition at 0.01 µM: 74%
[3]; [5]
  EC50: 55 nM

## COC[C@H]1CN[C@H](C)CN1CC(=O)N1CC(C)(C)c2cnc(C3=CCCCC3)cc21 [Example 106, 1-[6-(Cyclohex-1-en-1-yl)-3,3-dimethyl-1H,2H,3H-pyrrolo[3,2-c]pyridin-1-yl]-2-[(2R,5R)-2-(methoxymethyl)-5-methylpiperazin-1-yl]ethan-1-one, hydrochloride salt]
[1]
  IC50: 110 nM
[2]; [4]
  IC50: 23 nM
[3]; [5]
  EC50: 440 nM

## C[C@@H]1CN(CC(=O)N2CC3(Cc4ccccc4C3)c3ccc(C#N)cc32)[C@@H](C(=O)N2CCOCC2)CN1 [Example 109, 1′-{2-[(2R,5R)-5-Methyl-2-[(morpholin-4-yl)carbonyl]piperazin-1-yl]acetyl}-1,1′,2′,3-tetrahydro-spiro[indene-2,3′-indole]-6′-carbonitrile, hydrochloride salt]
[1]
  IC50: 63 nM
[2]; [4]
  IC50: 150 nM
[3]; [5]
  EC50: 4800 nM

## COC[C@H]1CN[C@H](C)CN1CC(=O)N1CC(C)(C)c2cnc(Oc3ccccc3Cl)cc21 [Example 110, 1-[6-(2-Chloro-phenoxy)-3,3-dimethyl-2,3-dihydro-pyrrolo[3,2-c]pyridin-1-yl]-2-((2R,5R)-2-methoxymethyl-5-methyl-piperazin-1-yl)-ethanone, hydrochloride salt]
[1]
  IC50: 75 nM
[2]; [4]
  IC50: 35 nM
[3]; [5]
  EC50: 600 nM

## C[C@@H]1CN(CC(=O)N2CC(C)(C)c3ccc(Cc4ccccc4)cc32)[C@@H](C(=O)N2CCOCC2)CN1 [Example 111, 1-(6-Benzyl-3,3-dimethyl-2,3-dihydro-indol-1-yl)-2-[(2R,5R)-5-methyl-2-(morpholine-4-carbonyl)-piperazin-1-yl]-ethanone, hydrochloride salt]
[1]
  IC50: 74 nM
[2]; Probe B, @ 0.01 μM
  inhibition at 0.01 µM: 63%
[3]; [5]
  EC50: 71 nM

## C[C@@H]1CN(CC(=O)N2CC(C)(C)c3cnc(Cc4ccccc4)cc32)[C@@H](Cn2cccn2)CN1 [Example 112, 1-(6-Benzyl-3,3-dimethyl-2,3-dihydro-pyrrolo[3,2-c]pyridin-1-yl)-2-((2R,5R)-5-methyl-2-pyrazol-1-ylmethyl-piperazin-1-yl)-ethanone]
[1]
  IC50: 67 nM
[2]; Probe B, @ 0.01 μM
  inhibition at 0.01 µM: 69%
[3]; [5]
  EC50: 95 nM

## COC[C@H]1CN[C@H](C)CN1CC(=O)N1CC(C)(C)c2cnc(C3CCCCC3)cc21 [Example 118, 1-{6-Cyclohexyl-3,3-dimethyl-1H,2H,3H-pyrrolo[3,2-c]pyridin-1-yl}-2-[(2R,5R)-2-(methoxymethyl)-5-methylpiperazin-1-yl]ethan-1-one dihydrochloride]
[1]
  IC50: 710 nM
[2]; [6]
  IC50: 240 nM
[3]; [7]
  EC50: 3400 nM

## COC[C@H]1CN[C@H](C)CN1CC(=O)N1CC2(Cc3ccccc3C2)c2ccc(Cl)cc21 [Example 120, 1-{6′-Chloro-1,1′,2′,3-tetrahydrospiro[indene-2,3′-indole]-1′-yl}-2-[(2R,5R)-2-(methoxymethyl)-5-methylpiperazin-1-yl]ethan-1-one]
[1]
  IC50: 260 nM
[2]; [4]
  IC50: 170 nM
[3]; [5]
  EC50: 6800 nM

## COC[C@H]1CN[C@H](C)CN1CC(=O)N1CC(C)(C)c2cnc(-c3ccsc3)cc21 [Example 126, 1-[3,3-Dimethyl-6-(thiophen-3-yl)-1H,2H,3H-pyrrolo[3,2-c]pyridin-1-yl]-2-[(2R,5R)-2-(methoxymethyl)-5-methylpiperazin-1-yl]ethan-1-one dihydrochloride]
[1]
  IC50: 380 nM
[2]; [6]
  IC50: 86 nM
[3]; 72 h, read-out: EC50, inhibition of cell growth
  EC50: < 10000 nM
[3]; [7]
  EC50: 1800 nM

## C[C@@H]1CN(CC(=O)N2CC(C)(C)c3cnc(Cc4ccccc4)cc32)[C@@H](C(=O)N2CCCC2)CN1 [Example 131, 1-{6-Benzyl-3,3-dimethyl-1H,2H,3H-pyrrolo[3,2-c]pyridin-1-yl}-2-[(2R,5R)-5-methyl-2-[(pyrrolidin-1-yl)carbonyl]piperazin-1-yl]ethan-1-one dihydrochloride]
[1]
  IC50: 130 nM
[2]
  inhibition at 0.01 µM: 63%
[3]; [7]
  EC50: 88 nM

## C[C@@H]1CN(CC(=O)N2CC(C)(C)c3cnc(Cc4ccccc4)cc32)[C@@H](C(=O)N2CCCCC2)CN1 [Example 133, 1-{6-Benzyl-3,3-dimethyl-1H,2H,3H-pyrrolo[3,2-c]pyridin-1-yl}-2-[(2R,5R)-5-methyl-2-[(piperidin-1-yl)carbonyl]piperazin-1-yl]ethan-1-one dihydrochloride]
[1]
  IC50: 91 nM
[2]
  inhibition at 0.01 µM: 71%
[3]; [7]
  EC50: 110 nM

## CCC1(CC)CN(C(=O)CN2C[C@@H](C)NC[C@@H]2C(=O)N2CCOCC2)c2cc(Cl)ccc21 [Example 135, 1-(6-Chloro-3,3-diethyl-2,3-dihydro-1H-indol-1-yl)-2-[(2R,5R)-5-methyl-2-[(morpholin-4-yl)carbonyl]piperazin-1-yl]ethan-1-one hydrochloride]
[1]
  IC50: 400 nM
[2]; [4]
  IC50: 79 nM
[3]; [5]
  EC50: 1600 nM

## C[C@@H]1CN(CC(=O)N2CC3(Cc4ccccc4C3)c3ccc(Cl)cc32)[C@@H](Cn2cccn2)CN1 [Example 142, 1-{6′-Chloro-1,1′,2′,3-tetrahydrospiro[indene-2,3′-indole]-1′-yl}-2-[(2R,5R)-5-methyl-2-(1H-pyrazol-1-ylmethyl)piperazin-1-yl]ethan-1-one hydrochloride]
[1]
  IC50: 220 nM
[2]; [4]
  IC50: 150 nM
[3]; at 1 μM, read-out: EVSA-T prolif: % inhibition
  inhibition at 1 µM: 20%

## C[C@@H]1CN(CC(=O)N2CC(C)(c3ccccc3)c3ccc(C#N)cc32)[C@@H](Cn2cccn2)CN1 (stereo partly drawn) [Example 143, 3-Methyl-1-{2-[(2R,5R)-5-methyl-2-(1H-pyrazol-1-ylmethyl)piperazin-1-yl]acetyl}-3-phenyl-2,3-dihydro-1H-indole-6-carbonitrile hydrochloride]
[1]
  IC50: 100 nM
[2]; [4]
  IC50: 200 nM
[3]; [5]
  EC50: 8800 nM

## COC[C@H]1CN[C@H](C)CN1CC(=O)N1CC(C)(C)c2cnc(-c3ccoc3)cc21 [Example 145, 1-[6-(Furan-3-yl)-3,3-dimethyl-1H,2H,3H-pyrrolo[3,2-c]pyridin-1-yl]-2-[(2R,5R)-2-(methoxymethyl)-5-methylpiperazin-1-yl]ethan-1-one dihydrochloride]
[1]
  IC50: 1000 nM
[2]; [6]
  IC50: 180 nM
[3]; [7]
  EC50: 9800 nM

## COC[C@H]1CN[C@H](C)CN1CC(=O)N1CC(C)(C)c2cnc(C(F)(F)c3ccccc3)cc21 [Example 146, 1-{6-[Difluoro(phenyl)methyl]-3,3-dimethyl-1H,2H,3H-pyrrolo[3,2-c]pyridin-1-yl}-2-[(2R,5R)-2-(methoxymethyl)-5-methylpiperazin-1-yl]ethan-1-one hydrochloride]
[1]
  IC50: 75 nM
[2]; [4]
  IC50: 17 nM
[3]; [5]
  EC50: 640 nM

## COC[C@H]1CN[C@H](C)CN1CC(=O)N1CC(C)(C)c2cnc(-c3ccc(C)s3)cc21 [Example 148, 1-[3,3-Dimethyl-6-(5-methylthiophen-2-yl)-1H,2H,3H-pyrrolo[3,2-c]pyridin-1-yl]-2-[(2R,5R)-2-(methoxymethyl)-5-methylpiperazin-1-yl]ethan-1-one dihydrochloride]
[1]
  IC50: 360 nM
[2]; [6]
  IC50: 45 nM
[3]; [7]
  EC50: 2000 nM
